Assay results: patent US20250236589A1, “THERAPEUTIC PHENETHYLAMINE COMPOSITIONS AND METHODS OF USE” (Cybin IRL Limited, priority 2022, published 2025)
Read-outs that look alike come from different tables or passages of the source. Marks after values point to notes of the source that are not given here.

Legend:
[1] = In vitro liver microsome stability (RLM); assay type: in vitro ADME; details: rat, rat liver microsomes, 0.5 mg/mL microsomes, NADPH, read-out: RLM, t1/2
Experimental: In vitro stability was determined in Human (HLM), Rat (RLM), Mouse (MsLM), and dog (DLM) Liver Microsomes. All liver microsomes were purchased from a commercial supplier (e.g. XenoTech). The reaction mixture, minus NADPH, was prepared as described below. The test compound was added into the reaction mixture at a final concentration of 1 μM or co-dosed with their deuterated analog(s) at 1 μM each. The control compound, testosterone, was run simultaneously with the test compound in a separate reaction. The reaction mixture (without cofactor) was equilibrated in a shaking water bath at 37° C. for 5 minutes. The reaction was initiated by the addition of the cofactor, and the mixture was incubated in a shaking water bath at 37° C. Aliquots (150 μL) were withdrawn at 0, 5, 10, 20, 30, 60, and 120 minutes. Test compound and testosterone samples were immediately combined with 150 μL of ice-cold acetonitrile (ACN) containing 0.1% formic acid and internal standard to terminate the reaction. The samples were then mixed and centrifuged to precipitate proteins. All samples were assayed by LC-MS/MS using electrospray ionization. The peak area response ratio (PARR) of analyte to internal standard at each time point was compared to the PARR at time 0 to determine the percent remaining at each time point. Half-lives were calculated using GraphPad software, fitting to a single-phase exponential decay equation.

[2] = biological target: T1, 5-HT2A receptor (Homo sapiens (Human), UniProt P28223); assay: 5-HT2A radioligand competition binding ([3H]LSD or [3H]ketanserin)
[3] = biological target: MAO-A (Homo sapiens (Human), UniProt P21397); assay: Recombinant human MAO-A activity (stability); assay type: in vitro ADME; details: hrMAO 0.02 mg/mL, read-out: MAO-A, t1/2
Sequence of MAO-A (P21397 whole entry, looked up): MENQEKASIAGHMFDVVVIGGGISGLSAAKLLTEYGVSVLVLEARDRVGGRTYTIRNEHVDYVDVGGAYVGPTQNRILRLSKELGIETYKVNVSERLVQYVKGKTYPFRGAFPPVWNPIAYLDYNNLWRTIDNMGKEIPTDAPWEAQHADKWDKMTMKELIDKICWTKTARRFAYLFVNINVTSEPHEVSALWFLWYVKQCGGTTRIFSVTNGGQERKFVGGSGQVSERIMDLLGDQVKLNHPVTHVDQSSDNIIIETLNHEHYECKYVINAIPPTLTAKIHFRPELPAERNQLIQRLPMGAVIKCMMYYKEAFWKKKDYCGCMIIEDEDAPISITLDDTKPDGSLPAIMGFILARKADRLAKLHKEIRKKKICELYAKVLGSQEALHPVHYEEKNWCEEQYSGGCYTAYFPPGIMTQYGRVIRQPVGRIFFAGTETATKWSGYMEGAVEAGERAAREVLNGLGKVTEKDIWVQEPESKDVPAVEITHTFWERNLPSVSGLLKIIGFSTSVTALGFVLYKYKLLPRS
Experimental: hrMAO-A and MAO control were purchased from XenoTech. The reaction mixture was prepared as described below. The test compound was added into the reaction mixture at a final concentration of 1 μM or co-dosed with their deuterated analog at 1 μM each. The positive control kynuramine (25 μM) was run simultaneously with the test compound in a separate reaction. The reaction mixture (without test compounds or kynuramine) was equilibrated in a shaking water bath at 37° C. for 5 minutes. The reaction was initiated by the addition of the test compound or kynuramine, and the mixture was incubated in a shaking water bath at 37° C. Aliquots (150 μL) of the test compound reaction mixture were withdrawn at 0, 5, 10, 20, 30, 60, and 120 minutes. Aliquots (150 μL) of the positive control reaction mixture were withdrawn at 0 and 30 minutes. Test compound(s) and kynuramine samples were immediately combined with 150 μL of ice-cold 100% acetonitrile containing 0.1% formic acid and internal standard (0.2 μM metoprolol) to terminate the reaction. The samples were then mixed and centrifuged to precipitate proteins. All samples were assayed by LC-MS/MS. The peak area response ratio (PARR) of analyte to internal standard at each time point was compared to the PARR at time 0 to determine the percent remaining at each time point. Half-lives were calculated using GraphPad software, fitting to a single-phase exponential decay equation.

[4] = biological target: T1, 5-HT2A receptor; assay: 5-HT2A functional assay, IP1 (IPOne); assay type: cell-based; details: IP1 assay; for EC50: read-out: 5-HT2A EC50; for Emax: relative to 5-HT
Experimental: After incubation, cells were lysed and fluorescence acceptor and donor were added. FRET was measured after 60 min at room temperature using a microplate reader (Envision, Perkin Elmer). TRUPATH assays followed a similar workflow, except that different reagents were used, and LiCl was not included in the samples; the protocol was based on the report by Olsen, R. H. J. et al., cited above.

[5] = biological target: human 5-HT2B receptor (Homo sapiens (Human), UniProt P41595); assay: 5-HT2B functional assay, IP1 (IPOne); assay type: cell-based; details: for Emax: IP1 assay, relative to 5-HT
Sequence of human 5-HT2B receptor (P41595 whole entry, looked up): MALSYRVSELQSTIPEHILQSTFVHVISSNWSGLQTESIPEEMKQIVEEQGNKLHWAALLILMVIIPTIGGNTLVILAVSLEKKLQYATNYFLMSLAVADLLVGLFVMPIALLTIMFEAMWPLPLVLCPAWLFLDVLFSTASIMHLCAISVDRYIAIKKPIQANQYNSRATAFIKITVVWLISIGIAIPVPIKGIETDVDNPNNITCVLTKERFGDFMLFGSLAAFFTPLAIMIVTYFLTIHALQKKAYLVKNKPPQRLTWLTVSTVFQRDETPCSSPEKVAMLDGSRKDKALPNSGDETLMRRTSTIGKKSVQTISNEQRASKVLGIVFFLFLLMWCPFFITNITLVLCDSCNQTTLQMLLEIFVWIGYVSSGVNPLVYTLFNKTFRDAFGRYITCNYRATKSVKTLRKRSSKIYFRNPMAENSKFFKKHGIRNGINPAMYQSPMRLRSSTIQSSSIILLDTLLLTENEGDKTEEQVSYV
Experimental: 5-HT2A,2B,2C receptor-mediated Gq activation—canonical signaling pathways—[phosphoinositide hydrolysis leading to the production of inositol phosphate 1 (IP1, IPOne, Cisbio assay) or direct G-protein activation using TRUPATH technology]were measured as previously described (Porter, R. H. P., Benwell, K. R., Lamb, H., Malcolm, C. S., Allen, N. F., Revell, D. F., Adams, D. R. and Sheardown, M. J., 1999, Functional characterization of agonists at recombinant human 5-HT2a, 5HT2b and 5-HT2c receptors in CHO-K1 cells, Brit J Pharmacol 128, 13; Olsen, R. H. J., DiBerto, J. F., English, J. G. et al. TRUPATH, an open-source biosensor platform for interrogating the GPCR transducerome. […] Briefly, for the IPOne assay, for 5-HT2ARs, CHO-K1 or HEK-293 cells were incubated with test articles and 5-HT (positive control) in stimulation buffer containing LiCl. After incubation, cells were lysed and fluorescence acceptor and donor were added. FRET was measured after 60 min at room temperature using a microplate reader (Envision, Perkin Elmer). TRUPATH assays followed a similar workflow, except that different reagents were used, and LiCl was not included in the samples; the protocol was based on the report by Olsen, R. H. J. et al., cited above.

[6] = tested on: mice; assay: Head-twitch response (HTR) screening in mice; assay type: in vivo, mouse
Experimental: Protocols were followed according to Canal C E, Morgan D. Head-twitch response in rodents induced by the hallucinogen 2,5-dimethoxy-4-iodoamphetamine: a comprehensive history, a re-evaluation of mechanisms, and its utility as a model. […] Mice were housed in standard laboratory cages with ad libitum access to food and water and were acclimated to the vivarium for at least one week prior to testing in a procedure room. In a typical experiment, mice were injected 3 mg/kg of test article subcutaneously. Mice were placed immediately thereafter in a clear, polycarbonate box (46×20×20 cm), and HTRs were counted at various time points after administration using hand-held tally counters. In a separate experiment, plasma and brain samples were collected at 15 and 160 minutes after administration of test compounds to measure plasma and brain concentrations. Quantification was performed using LC-MS/MS method (LLOQ, 9 nM).

[7] = Plasma and brain concentrations after dosing in mice (screening); assay type: in vivo, mouse; details: mouse; for concentration at 15 min / concentration at 160 min: sc, mice, 3 mg/kg s.c.; for Kp at 160 min: brain/plasma, subcutaneous, 3 mg/kg, 160 min after 3 mg/kg, read-out: brain/plasma ratio, 160 min
[8] = read-out: 5-HT2A, Ki, radioligand [3H]LSD
[9] = brain, read-out: Brain, 160 min
[10] = plasma, read-out: Plasma, 15 min
[11] = plasma, read-out: Plasma, 160 min
[12] = read-out: 5-HT2A, Ki, radioligand [3H]ketanserin

SMILES: [2H]C([2H])([2H])Oc1cc(C(C)(C)C)c(OC([2H])([2H])[2H])cc1CCN [II-3, 2-(4-(tert-butyl)-2,5-bis(methoxy-d3)phenyl)ethan-1-amine]
- half-life at 1 μM [1]: 2.4 min
- Ki [2, 8]: 11 nM

SMILES: COc1cc(SCCC(F)(F)F)c(OC)cc1CCN [Compound I-2, 2-(2,5-dimethoxy-4-((3,3,3-trifluoropropyl)thio)phenyl)ethan-1-amine]
- half-life at 1 μM [1]: 24.8 min
- half-life at 1 μM [3]: 30.9 min
- affinity at 5-HT2A receptors (in words) [2]: high affinity
- Ki [2, 8]: 8.5 nM

SMILES: COc1cc(C(C)(C)C)c(OC)cc1CCN [VI-1, 2-(4-(tert-butyl)-2,5-dimethoxyphenyl)ethan-1-amine]
- 2A/2B EC50 Selectivity [4]: 6
- EC50 [4]: 4.2 nM
- Emax [4]: 87%
- EC50 [5]: 25 nM
- Emax [5]: 87%
- HTR 15-25 min ([6]; mice, 3 mg/kg s.c.): 24.5
- HTR 160-170 min ([6]; mice, 3 mg/kg s.c.): 17.7
- concentration at 15 min ([7]; brain, read-out: Brain 15 min): 2900 nM
- concentration at 160 min [7, 9]: 4600 nM
- Kp at 160 min [7]: 57.1
- concentration at 15 min [7, 10]: 250 nM
- concentration at 160 min [7, 11]: 80 nM
- half-life at 1 μM [1]: 2.4 min
- Ki [2, 8]: 9.9 nM

SMILES: COc1cc(SCCCF)c(OC)cc1CCN [Compound I-4, 2-(4-((3-fluoropropyl)thio)-2,5-dimethoxyphenyl)ethan-1-amine]
- half-life at 1 μM [1]: 11 min
- half-life at 1 μM [3]: 45 min
- affinity at 5-HT2A receptors (in words) [2]: high affinity
- Ki [2, 8]: 12 nM

SMILES: COc1cc(SC)c(OC)cc1CCN [Reference Compound 3, 2-(2,5-dimethoxy-4-(methylthio)phenyl)ethan-1-amine, reference compound]
- HTR 15-25 min ([6]; measured 0-15 min): 19 ##
- half-life at 1 μM [1]: 5.2 min
- half-life at 1 μM [3]: > 120 min
- Ki [2, 12]: 296 nM

SMILES: C#CCSc1cc(OC)c(CCN)cc1OC [Compound I-11, 2-(2,5-dimethoxy-4-(prop-2-yn-1-ylthio)phenyl)ethan-1-amine]
- HTR 15-25 min ([6]; calculated using 0-30 min): 24.5 ####
- HTR 160-170 min ([6]; mice, 3 mg/kg s.c.): 16.7
- Ki [2, 8]: 1.3 nM

SMILES: COc1cc(SCC(F)(F)C(F)F)c(OC)cc1CCN [Compound I-10, 2-(2,5-dimethoxy-4-((2,2,3,3-tetrafluoropropyl)thio)phenyl)ethan-1-amine]
- 2A/2B EC50 Selectivity [4]: 2.7
- EC50 [4]: 89 nM
- Emax [4]: 76%
- EC50 [5]: 240 nM
- Emax [5]: 84%
- HTR 15-25 min ([6]; mice, 3 mg/kg s.c.): 3.4
- HTR 160-170 min ([6]; mice, 3 mg/kg s.c.): 2.7
- concentration at 15 min ([7]; brain, read-out: Brain 15 min): 900 nM
- concentration at 160 min [7, 9]: 1100 nM
- Kp at 160 min [7]: 12.3
- concentration at 15 min [7, 10]: 900 nM
- concentration at 160 min [7, 11]: 100 nM
- affinity at 5-HT2A receptors (in words) [2]: high affinity

SMILES: [2H]C([2H])([2H])Oc1cc(SC)c(OC([2H])([2H])[2H])cc1CCN [II-1, 2-(2,5-bis(methoxy-d3)-4-(methylthio)phenyl)ethan-1-amine]
- HTR 15-25 min ([6]; measured 0-15 min): 21 ##
- half-life at 1 μM [1]: 5.7 min
- Ki [2]: > 150 nM
- Ki [2, 12]: 174 nM

SMILES: COc1cc(OCCC(F)F)c(OC)cc1CCN [Compound I-6, 2-(4-(3,3-difluoropropoxy)-2,5-dimethoxyphenyl)ethan-1-amine]
- half-life at 1 μM [1]: > 120 min
- Ki [2]: > 150 nM

SMILES: COc1cc(OCCC(F)(F)F)c(OC)cc1CCN [Compound I-5, 2-(2,5-dimethoxy-4-(3,3,3-trifluoropropoxy)phenyl)ethan-1-amine]
- half-life at 1 μM [1]: > 120 min
- Ki [2]: > 150 nM

SMILES: [2H]C([2H])(N)Cc1cc(OC)c(SC)cc1OC [IV-1, 2-(2,5-dimethoxy-4-(methylthio)phenyl)ethan-1,1-d2-1-amine]
- half-life at 1 μM [1]: 5.3 min
- Ki [2]: > 150 nM
- Ki [2, 12]: 357 nM

SMILES: [2H]C([2H])([2H])Oc1cc(C(F)(F)F)c(OC([2H])([2H])[2H])cc1CCN [II-23, 2-(2,5-bis(methoxy-d3)-4-(trifluoromethyl)phenyl)ethan-1-amine]
- half-life at 1 μM [1]: 21.4 min
- half-life at 1 μM [3]: > 120 min
- Ki [2, 12]: 55 nM

SMILES: COc1cc(OCCCF)c(OC)cc1CCN [Compound I-7, 2-(4-(3-fluoropropoxy)-2,5-dimethoxyphenyl)ethan-1-amine]
- half-life at 1 μM [1]: > 120 min
- half-life at 1 μM [3]: > 120 min
- Ki [2]: > 150 nM
- Ki [2, 8]: 2600 nM

SMILES: [2H]C([2H])([2H])Oc1cc(C2CCCC2)c(OC([2H])([2H])[2H])cc1CCN [II-4, 2-(4-cyclopentyl-2,5-bis(methoxy-d3)phenyl)ethan-1-amine]
- half-life at 1 μM [1]: 7.5 min
- half-life at 1 μM [3]: > 120 min
- Ki [2]: > 150 nM
- Ki [2, 8]: 202 nM

SMILES: [2H]C([2H])([2H])C(c1cc(OC)c(CCN)cc1OC)(C([2H])([2H])[2H])C([2H])([2H])[2H] [III-2, 2-(2,5-dimethoxy-4-(2-(methyl-d3)propan-2-yl-1,1,1,3,3,3-d6)phenyl)ethan-1-amine]
- half-life at 1 μM [1]: 2.5 min
- Ki [2]: 10 nM
